Values joined by “and” are separate entries in the source; they are usually repeats but may differ in a detail not shown here. Equal values may be shown once. Read-outs that look alike come from different tables or passages of the source.
Tests used:
[1] = In vivo pharmacokinetics study in rats, intravenous and oral administration; parameters: species or system male Sprague Dawley rats
Method: The compounds of the present invention were formulated as a solution in a 30:70 (PEG 400:acidified H2O) vehicle. This solution was administered orally (p.o.) at 10 mg/kg and intravenously (i.v.) at 2.5 mg/kg to two distinct groups (n=3) of male Sprague Dawley rats (body weight of 220-250 g). The animals used in the oral dosing group were fasted for 12 hrs before the drug administration. The blood samples were collected via retro-orbital puncture at 0 hour (pre-dose), 0.083, 0.25, 0.5, 1, 2, 4, 6, 8, and 24 hours post-dose. The blood plasma was isolated and HPLC was performed to determine the concentration of the test compounds in blood plasma. Standard set of pharmacokinetic parameters including Area Under the Curves (AUC's), elimination half-lives and bioavailabilities etc. were calculated using FDA certified pharmacokinetic program WinNonlin Professional v5.2 (Pharsight, USA).
The bioavailability was calculated as F (%)=(Doseiv×AUCoral(0-∞))/(Doseoral×AUCiv(0-∞))100%. The plasma concentration-time curve of example 5 in male rats following intravenous and oral administration was shown in FIG. 1. Selected pharmacokinetics parameters of example 5 in male rats following intravenous and oral administration were listed in Table 2.

[2] = tested on: U87MG glioblastoma tumor xenograft; details: for tumor growth inhibition: Day 12, vs vehicle-treated controls
Method: The U87MG glioblastoma cell line (obtained from Institute of Biochemistry and Cell Biology, Shanghai Institutes for Biological Sciences) expresses the c-Met receptor and responds to […] (HGF). […] The study utilized a tumor growth inhibition (TGI) assay to test per os (p.o.) compound monotherapy in groups of eight nude mice. A control group was treated with a 30:70 (PEG 400:acidified H2O) vehicle. All treatments began on Day 1 (D1) in mice bearing established subcutaneous (s.c.) U87MG tumors.
Female athymic nude mice (BALB/cA, Shanghai Laboratories Animal Center, Shanghai, China) were 7-8 weeks old with a body weight range of 19-21 g at the beginning of the study. Food and water were available ad libitum throughout the study. Mice were housed in SPF (Specific Pathogen Free) area of Medicilon/MPI animal facility. Environmental control for the animal room was set to maintain a temperature of 18-25° C., humidity of 30-70%, and a 12-hour light/12-hour dark cycle. Animals had previously been acclimated to study procedures prior to initial dose administration. Animals to be used on test were selected based on overall health and acclimation to caging.
U-87 MG human glioblastoma cells were purchased from Institute of Biochemistry and Cell Biology, Shanghai Institutes for Biological Sciences. The cells were maintained in vitro Eagle's Minimum Essential Medium supplemented with 10% heat inactivated fetal calf serum. Cells were cultured at 37° C. in an atmosphere of 5% CO2 in air and routinely sub-cultured twice weekly by trypsin-EDTA treatment. Cells in an exponential growth phase were harvested and counted for tumor inoculation. Each test mouse was subcutaneously inoculated with 1×10^7 U87-MG tumor cells in 0.1 ml medium at the right flank of the mouse for tumor model development. During the experiment, the implanted tumors were measured by external caliper every other day in a blind fashion. Nine days later, on Day 1 of the study, mice with well-established tumors (about 150 mm^3) were randomly assigned into 4 groups (n=8 mice/group). Tumor volume was calculated using the formula: Tumor Volume=w^2×l/2 where w=width and l=length in mm of the tumor. Tumor weight may be estimated with the assumption that 1 mg is equivalent to 1 mm^3 of tumor volume.
In all groups, the dosing volume of 0.2 mL/20 g mouse was scaled to the body weight of each animal
The MTV (n) is defined as the median tumor volume (MTV) for the number of animals, n, remaining in the study on that day. The Median Tumor Growth Volume=Median Tumor Volume−Median Tumor Volumeinitial.
Tumor growth was plotted as the median tumor volume, versus time, for each group in the study. The differences in the tumor size between the treatment groups and the vehicle group are analyzed for significance using the unpaired two-tailed Student's t-test. P<0.05 is considered to be statistically significant.

[3] = male rats, IV 2.5 mg/kg, individual animals R 1-R 3
[4] = male rats, PO 10 mg/kg, fasted, individual animals R 4-R 6
[5] = male, Sprague Dawley, rat, plasma, iv, 2.5 mg/kg, IV 2.5 mg/kg, individual animals R 1-R 3
[6] = male, Sprague Dawley, rat, plasma, iv, 2.5 mg/kg, IV 2.5 mg/kg, mean (n=3)
[7] = male, Sprague Dawley, rat, plasma, po, 10 mg/kg, PO 10 mg/kg, fasted, individual animals R 4-R 6
[8] = male, Sprague Dawley, rat, plasma, po, 10 mg/kg, PO 10 mg/kg, fasted, mean (n=3)

Question: With `OCCn1cc(-c2ncc3nnn(Cc4ccc5ncccc5c4)c3n2)cn1` [Example 5, 2-(4-(3-(Quinolin-6-ylmethyl)-3H-[1,2,3]triazolo[4,5-d]pyrimidin-5-yl)-1H-pyrazol-1-yl)ethanol] as the molecule, how does the Tmax ([1]; Sprague Dawley, rat, plasma, male rats, IV 2.5 mg/kg, individual animals R 1-R 3) read?
Answer: 0.08 h

Question: What about the Tmax ([1]; Sprague Dawley, rat, plasma, male rats, PO 10 mg/kg, fasted, individual animals R 4-R 6) of the same molecule?
Answer: 2 h

Question: And the “AUC(0-t)” value [1, 3]?
Answer: 5472.46 ng·h/mL and 3451.75 ng·h/mL and 7274.77 ng·h/mL

Question: And the “AUC(0-∞)” value [1, 3]?
Answer: 3741.58 ng·h/mL and 7310.08 ng·h/mL

Question: And the Cmax [1, 3]?
Answer: 2417.88 ng/mL and 3019.57 ng/mL

Question: And the t1/2 [1, 3]?
Answer: 2.59 h and 3.23 h

Question: What about the “F % (bioavailability)” value ([1]; male rats, PO 10 mg/kg vs IV 2.5 mg/kg, individual animals R 4-R 6) of the same molecule?
Answer: 70.36% and 72.63%

Question: What about the “AUC(0-t)” value [1, 4] of the same molecule?
Answer: 15454.20 ng·h/mL and 15954.84 ng·h/mL

Question: What about the “AUC(0-∞)” value [1, 4] of the same molecule?
Answer: 15509.49 ng·h/mL and 16010.05 ng·h/mL

Question: What about the Cmax [1, 4] of the same molecule?
Answer: 1505.63 ng/mL and 2299.65 ng/mL

Question: And the t1/2 [1, 4]?
Answer: 2.82 h and 2.98 h

Question: What about the AUC(0-inf) [1, 5] of the same molecule?
Answer: 5480 ng·h/mL

Question: What about the half-life [1, 5] of the same molecule?
Answer: 2.62 h

Question: What about the Cmax ([1]; male, Sprague Dawley, rat, plasma, iv, 2.5 mg/kg, IV 2.5 mg/kg, individual animals R 1-R 3, read-out: Cmax) of the same molecule?
Answer: 2700 ng/mL

Question: And the AUC(0-inf) [1, 6]?
Answer: 5510 ng·h/mL

Question: And the half-life [1, 6]?
Answer: 2.81 h

Question: What about the AUC(0-t) ([1]; male, Sprague Dawley, rat, plasma, iv, 2.5 mg/kg, IV 2.5 mg/kg, mean (n=3), read-out: AUC(0-t)) of the same molecule?
Answer: 5400 ng·h/mL

Question: And the Cmax ([1]; male, Sprague Dawley, rat, plasma, iv, 2.5 mg/kg, IV 2.5 mg/kg, mean (n=3), read-out: Cmax)?
Answer: 2710 ng/mL

Question: What about the bioavailability ([1]; male, Sprague Dawley, rat, plasma, po, 10 mg/kg, PO 10 mg/kg vs IV 2.5 mg/kg, individual animals R 4-R 6, read-out: F % (bioavailability)) of the same molecule?
Answer: 79.4%

Question: What about the bioavailability ([1]; male, Sprague Dawley, rat, plasma, po, 10 mg/kg, PO 10 mg/kg vs IV 2.5 mg/kg, mean (n=3), read-out: F % (bioavailability)) of the same molecule?
Answer: 74.1%

Question: What about the AUC(0-inf) [1, 7] of the same molecule?
Answer: 17500 ng·h/mL

Question: What about the half-life [1, 7] of the same molecule?
Answer: 2.88 h

Question: And the AUC(0-t) ([1]; male, Sprague Dawley, rat, plasma, po, 10 mg/kg, PO 10 mg/kg, fasted, individual animals R 4-R 6, read-out: AUC(0-t))?
Answer: 17400 ng·h/mL

Question: And the Cmax ([1]; male, Sprague Dawley, rat, plasma, po, 10 mg/kg, PO 10 mg/kg, fasted, individual animals R 4-R 6, read-out: Cmax)?
Answer: 2540 ng/mL

Question: What about the AUC(0-inf) [1, 8] of the same molecule?
Answer: 16300 ng·h/mL

Question: What about the half-life [1, 8] of the same molecule?
Answer: 2.89 h

Question: And the AUC(0-t) ([1]; male, Sprague Dawley, rat, plasma, po, 10 mg/kg, PO 10 mg/kg, fasted, mean (n=3), read-out: AUC(0-t))?
Answer: 16300 ng·h/mL

Question: And the Cmax ([1]; male, Sprague Dawley, rat, plasma, po, 10 mg/kg, PO 10 mg/kg, fasted, mean (n=3), read-out: Cmax)?
Answer: 2110 ng/mL

Question: What about the tumor growth inhibition ([2]; 10 mg/kg p.o. once a day (q.d.)) of the same molecule?
Answer: 58%

Question: What about the tumor growth inhibition ([2]; 30 mg/kg p.o. twice a day (b.i.d.)) of the same molecule?
Answer: 70%

Question: And the “significance of tumor growth inhibition” value ([2]; 40 mg/kg (q.d.) and 30 mg/kg (b.i.d.), from Day 4, p<0.05)?
Answer: statistically significant tumor growth inhibition

Question: What about the tumor growth inhibition ([2]; 40 mg/kg p.o. once a day (q.d.)) of the same molecule?
Answer: 66%

Question: What about the “significance of tumor growth inhibition” value ([2]; all doses (10, 40 mg/kg q.d., 30 mg/kg b.i.d.), from Day 6, p<0.05) of the same molecule?
Answer: statistically significant tumor growth inhibition

— patent US8598184B2, “Protein kinase inhibitors” (Tiger Pharmatech, priority 2008, dated 2013)
